Laboratory results: US8716315B2, “Analogs of thalidomide as potential angiogenesis inhibitors” (The United States of America as represented by the …, priority 2001, dated 2014)

Experiments:
[1] = system: HUVEC; assay: HUVEC MTT assay; assay type: cell-based; settings: for inhibition, growth curves treated vs control wells: at about 72 hours
Method: HUVEC MTT assays were performed for the selected thalidomide analogs of the present invention to determine a rough estimate of the efficacy of such compounds in the inhibition of angiogenesis. For the MTT assay, 1.0 to 2.5×10^3 cells per well were plated in 96-well plates in 0.1 ml medium, in triplicate. After 24 hours, the cells were exposed to treatment for 5 days. One plate was analyzed every 24 hours by the addition of 20 μL of 5 mg/ml MTT solution (available from Sigma of St. Louis, Mo.) in PBS, to each well for 4 hours. The MTT solution was aspirated and 170 μL DMSO was added to each well to dissolve the formazan crystals. The absorbance at 540 nm was measured using a Biokinetics plate reader (available from Bio-Tek Instruments of Winooski, Vt.). Triplicate wells were assayed for each condition. The assay protocol described herein stems from Kruger et al., a protein kinase C inhibitor, inhibits endothelial cell proliferation and angiogenic hypoxic response, Invasion and Metastasis, 18(4): 209-218 (incorporated herein by reference).
The following results for the selected compounds were determined measured utilizing growth curves comparing control wells to treated wells using the MTT assays.

[2] = system: rat aortic rings; assay: Anti-angiogenic activity utilizing rat aortic rings; assay type: cell-based, rat (Sprague-Dawley); settings: daily dosage of 100 μM, five-day treatment, image analysis vs DMSO control rings; for inhibition at 100 µM: Rattus norvegicus, 120 h, read-out: angiogenesis inhibition activity
Description: The efficacy of selected thalidomide analogs of the present invention was studied by five-day treatment of rat aortic rings (utilizing Sprague-Dawley rats available from Charles River Labs) with varied doses of the analogs. A DMSO control was utilized (FIG. 1). The results, determined using image analysis comparing control rings versus the treated rings (using NIM Image software), of the studies are as follows: […]

[3] = system: human saphenous veins; assay: Anti-angiogenic activity utilizing human saphenous vein; assay type: cell-based; settings: 336 h, daily dosages of 100 μM, 14 day treatment, image analysis, read-out: angiogenesis inhibition activity level
Method: The efficacy of 2-(1-hydroxymethyl-2,6-dioxo-piperidin-3-yl)-1,3-dihydro-2H-isoindole-1,3-dione (CPS11) was studied by 14 day treatment of human saphenous veins (obtained through an IRB-approved protocol, Surgery Brand NCI) with 100 μM doses of the analog. A CAI, carboxyamido-triazole, 12 μg/ml control was utilized.

[4] = Toxicology screen; settings: i.p., single dose

| SMILES | inhibition (cytostatic activity), growth curves treated vs control wells ([1]; 10 μM) | inhibition (cytostatic activity), growth curves treated vs control wells ([1]; 100 μM) | inhibition at 100 µM [2] [%] | toxicology screen outcome ([4]; 200 mg/kg) | other results |
| --- | --- | --- | --- | --- | --- |
| O=C1NC(=O)C(N2C(=O)c3ccccc3C2=O)CC1O (centres unmarked) [CPS3, 2-(5-hydroxy-2,6-dioxo-piperidin-3-yl)-1H-isoindole-1,3[2H]-dione] | No cytostatic activity | No cytostatic activity | ~50 | – | melting point: 195 to 230 °C |
| O=C1CCC(N2C(=O)c3ccccc3C2=O)C(=O)N1CO (centres unmarked) [CPS11, 2-(1-hydroxymethyl-2,6-dioxo-piperidin-3-yl)-1,3-dihydro-2H-isoindole-1,3-dione] | – | – | 90 | – | inhibition, growth curves treated vs control wells ([1]; 10 μM): about 60%; inhibition, growth curves treated vs control wells ([1]; 100 μM): > 90%; inhibition at 100 µM [3]: 90%; toxicology screen outcome ([4]; 10 mg/kg): safe; toxicology screen outcome ([4]; 100 mg/kg): safe; sedation noted ([4]; 10 and 100 mg/kg): Some amount of sedation |
| Cc1ccc(C)c2c1C(=O)N(c1ccc(F)cc1F)C2=O [CPS42, 2-(2,4-difluorophenyl)-4,7-dimethyl-1H-isoindole-1,3(2H)-dione] | no such activity | about 44% | – | safe | sedation noted ([4]; 200 mg/kg): Slight sedation; time after injection at which sedation was noted ([4]; 200 mg/kg): ≤ 15 min |
| CCC1(N2C(=O)c3ccccc3C2=O)C(=O)NC(=O)N(C2CCCCC2)C1=O (centres unmarked) [CPS44, 1-cyclohexyl-5-ethyl-5-phthalimidobarbituric acid] | no such activity | about 50% | – | – | angiogenesis inhibition activity [2]: No inhibition of angiogenesis |
| CCC1(N2C(=O)c3c(F)c(F)c(F)c(F)c3C2=O)C(=O)NC(=O)N(c2ccccc2)C1=O (centres unmarked) [CPS45, 5-ethyl-1-phenyl-5-(tetrafluorophthalimido)barbituric acid] | > 90% | > 90% | 90 | lethal dose | time to death after treatment ([4]; 200 mg/kg): ≤ 2.5 h |
| O=C1c2c(F)c(F)c(F)c(F)c2C(=O)N1c1c[nH]c(=O)[nH]c1=O [CPS48, 5-(tetrafluorophthalimido)pyrimidine-2,4(1H,3H)-dione] | about 85% | about 85% | 90 | – | – |
| O=C1c2c(F)c(F)c(F)c(F)c2C(=O)N1c1ccc(F)cc1F [CPS49, 2-(2,4-difluoro-phenyl)-4,5,6,7-tetrafluoro-1H-isoindole-1,3(2H)-dione] | no such activity | about 90% | – | lethal dose | angiogenesis inhibition activity [2]: extensive angiogenesis inhibition activity; time to death after treatment ([4]; 200 mg/kg): ≤ 18 h |
